According to US20260198493A1, “HYDRAZIDE COMPOUND AND AGRICULTURAL/HORTICULTURAL FUNGICIDE” (Nippon Soda Co., Ltd., priority 2022, published 2026):

Columns and labels:
[1] = test system: Botrytis cinerea; format: cell-based; details: 120 h, 25 ppm by volume, Vogel medium, 20° C., five days, dark, read-out: growth inhibition ratio
[2] = test system: Fusarium graminearum; assay: microbe, parasite or virus in culture; format: cell-based; details: 96 h, read-out: growth inhibition ratio
[3] = test system: Botrytis cinerea; assay: Control test of cucumber gray mold (sprayed young cucumber seedlings); format: in vivo; details: 96 h, four days after inoculation; for pest or weed control at 125 ppm: 125 ppm by mass spray; for pest or weed control at 25 ppm: 25 ppm by mass spray
Description: Then, the drug liquid was sprayed onto young cucumber seedlings cultivated in a nursery pot (variety “Jihai”-based, cotyledon stage), and then air-dried. […] They were left still in a moist room at 20° C. Four days after inoculation, leaves of the young cucumber seedlings were visually observed, and the control value was calculated from the lesion area ratio in accordance with the following equation. [formula]

[4] = test system: Venturia inaequalis; assay: Control test of apple scab disease (sprayed young apple seedlings); format: in vivo; details: 125 ppm by mass spray, 12 to 14 days after inoculation
[5] = test system: Erysiphe graminis f.sp.tritici; assay: Control test of wheat powdery mildew disease (sprayed young wheat seedlings); format: in vivo; details: Blumeria graminis, 144 h, 125 ppm by mass spray, six days after inoculation
[6] = test system: Colletotrichum acutatum; assay: Fungicidal effect test against fungi causing apple anthracnose; details: 96 h, read-out: growth inhibition ratio
[7] = test system: Glomerella cingulata; assay: Fungicidal effect test against fungi causing grape ripe rot disease; details: Colletotrichum gloeosporioides, 72 h, read-out: growth inhibition ratio

COC(=O)N(Cc1ccc(OC)cc1C)NC(=O)c1cc(Cl)nnc1Oc1cccc(Cl)c1F [b-170]
≥ 75%: inhibition of growth at 25 ppm [1] | inhibition of growth at 25 ppm [2] | pest or weed control at 125 ppm [3] | pest or weed control at 125 ppm [4] | pest or weed control at 125 ppm [5] | inhibition of growth at 25 ppm [6] | inhibition of growth at 25 ppm [7]

COC(=O)N(Cc1ccc(OC)cc1C)NC(=O)c1c(F)cncc1Oc1cccc(Cl)c1F [b-202]
≥ 75%: inhibition of growth at 25 ppm [1] | inhibition of growth at 25 ppm [2] | pest or weed control at 25 ppm [3] | pest or weed control at 125 ppm [3] | pest or weed control at 125 ppm [4] | pest or weed control at 125 ppm [5] | inhibition of growth at 25 ppm [6] | inhibition of growth at 25 ppm [7]

COC(=O)N(Cc1ccc(C)cc1C)NC(=O)c1c(Br)cncc1Oc1cccc(C2CC2)c1 [b-118]
≥ 75%: inhibition of growth at 25 ppm [1] | inhibition of growth at 25 ppm [2] | pest or weed control at 25 ppm [3] | pest or weed control at 125 ppm [3] | pest or weed control at 125 ppm [4] | pest or weed control at 125 ppm [5] | inhibition of growth at 25 ppm [6] | inhibition of growth at 25 ppm [7]

COC(=O)N(Cc1ccc(C)cc1C)NC(=O)c1cc(OC)ncc1Oc1cccc(C2CC2)c1F [b-94]
≥ 75%: inhibition of growth at 25 ppm [1] | inhibition of growth at 25 ppm [2] | pest or weed control at 25 ppm [3] | pest or weed control at 125 ppm [3] | pest or weed control at 125 ppm [4] | pest or weed control at 125 ppm [5] | inhibition of growth at 25 ppm [6] | inhibition of growth at 25 ppm [7]

COC(=O)N(Cc1ccc(C)cc1C)NC(=O)c1cc(C(F)(F)F)ncc1Oc1cccc(C2CC2)c1F [b-204]
≥ 75%: inhibition of growth at 25 ppm [1] | inhibition of growth at 25 ppm [2] | pest or weed control at 25 ppm [3] | pest or weed control at 125 ppm [3] | pest or weed control at 125 ppm [4] | pest or weed control at 125 ppm [5] | inhibition of growth at 25 ppm [6] | inhibition of growth at 25 ppm [7]

COC(=O)N(Cc1ccc(C)cc1C)NC(=O)c1c(F)cncc1Oc1cccc(C2CC2)c1F [b-199]
≥ 75%: inhibition of growth at 25 ppm [1] | inhibition of growth at 25 ppm [2] | pest or weed control at 25 ppm [3] | pest or weed control at 125 ppm [3] | pest or weed control at 125 ppm [4] | pest or weed control at 125 ppm [5] | inhibition of growth at 25 ppm [6] | inhibition of growth at 25 ppm [7]

Cc1ccc(CN(NC(=O)c2cc(C)nnc2Oc2cccc(C3CC3)c2F)C(=O)OC(C)(C)C)c(C)c1 [b-22]
≥ 75%: inhibition of growth at 25 ppm [1] | inhibition of growth at 25 ppm [2] | pest or weed control at 25 ppm [3] | pest or weed control at 125 ppm [3] | pest or weed control at 125 ppm [4] | pest or weed control at 125 ppm [5] | inhibition of growth at 25 ppm [6] | inhibition of growth at 25 ppm [7]

COC(=O)N(Cc1ccc(C)cc1C)NC(=O)c1c(OC)cncc1Oc1cccc(C2CC2)c1F [b-208]
≥ 75%: inhibition of growth at 25 ppm [1] | inhibition of growth at 25 ppm [2] | pest or weed control at 25 ppm [3] | pest or weed control at 125 ppm [3] | pest or weed control at 125 ppm [4] | pest or weed control at 125 ppm [5] | inhibition of growth at 25 ppm [6] | inhibition of growth at 25 ppm [7]

COC(=O)N(Cc1ccc(C)cc1C)NC(=O)c1cc(C)nnc1Oc1cccc(Br)c1 [b-55]
≥ 75%: inhibition of growth at 25 ppm [1] | inhibition of growth at 25 ppm [2] | pest or weed control at 25 ppm [3] | pest or weed control at 125 ppm [3] | pest or weed control at 125 ppm [4] | pest or weed control at 125 ppm [5] | inhibition of growth at 25 ppm [6] | inhibition of growth at 25 ppm [7]

COC(=O)N(Cc1ccc(C)cc1C)NC(=O)c1c(C)cnnc1Oc1cccc(C2CC2)c1F [b-228]
≥ 75%: inhibition of growth at 25 ppm [1] | inhibition of growth at 25 ppm [2] | pest or weed control at 25 ppm [3] | pest or weed control at 125 ppm [3] | pest or weed control at 125 ppm [4] | pest or weed control at 125 ppm [5] | inhibition of growth at 25 ppm [6] | inhibition of growth at 25 ppm [7]

Cc1ccc(CN(NC(=O)c2ccncc2Oc2cccc(C3CC3)c2F)C(=O)OC2COC2)c(C)c1 [b-196]
≥ 75%: inhibition of growth at 25 ppm [1] | inhibition of growth at 25 ppm [2] | pest or weed control at 25 ppm [3] | pest or weed control at 125 ppm [3] | pest or weed control at 125 ppm [4] | pest or weed control at 125 ppm [5] | inhibition of growth at 25 ppm [6] | inhibition of growth at 25 ppm [7]

CCOC(=O)N(Cc1ccc(C)cc1C)NC(=O)c1cc(C)ncc1Oc1cccc(C2CC2)c1F [b-33]
≥ 75%: inhibition of growth at 25 ppm [1] | inhibition of growth at 25 ppm [2] | pest or weed control at 125 ppm [3] | pest or weed control at 125 ppm [4] | pest or weed control at 125 ppm [5] | inhibition of growth at 25 ppm [6] | inhibition of growth at 25 ppm [7]

COC(=O)N(Cc1ccc(C)cc1C)NC(=O)c1c(C)cncc1Oc1cccc(C2CC2)c1 [b-149]
≥ 75%: inhibition of growth at 25 ppm [1] | inhibition of growth at 25 ppm [2] | pest or weed control at 25 ppm [3] | pest or weed control at 125 ppm [3] | pest or weed control at 125 ppm [4] | pest or weed control at 125 ppm [5] | inhibition of growth at 25 ppm [6] | inhibition of growth at 25 ppm [7]

COC(=O)N(Cc1ccc(OC)cc1C)NC(=O)c1c(C)cncc1Oc1cccc(C2CC2)c1 [b-229]
≥ 75%: inhibition of growth at 25 ppm [1] | inhibition of growth at 25 ppm [2] | pest or weed control at 25 ppm [3] | pest or weed control at 125 ppm [3] | pest or weed control at 125 ppm [4] | pest or weed control at 125 ppm [5] | inhibition of growth at 25 ppm [6] | inhibition of growth at 25 ppm [7]

COC(=O)N(Cc1ccc(C)cc1C)NC(=O)c1cc(C)nnc1Oc1cccc(Cl)c1 [b-113]
≥ 75%: inhibition of growth at 25 ppm [1] | inhibition of growth at 25 ppm [2] | pest or weed control at 25 ppm [3] | pest or weed control at 125 ppm [3] | pest or weed control at 125 ppm [4] | pest or weed control at 125 ppm [5] | inhibition of growth at 25 ppm [6] | inhibition of growth at 25 ppm [7]
